Legend:
BBC1 = test: DHFR-PCA on solid medium, bait BBC1 (Fig. 1B); type: cell-based, Saccharomyces cerevisiae; settings: bait BBC1, label = prey; for medrep (log2 median colony size normalized to plate background, PCA score): 2-4 replicates
From the text: (§1) Supplement 41467_2021_21873_MOESM8_ESM.xlsx, sheet "Fig1B" | column: medsize; medrep; Ratio; Score

[1] = test system: 575 putative partners (preys) of 22 WT SH3-containing proteins; test: DHFR-PCA on solid medium, WT and SH3-deleted baits (Fig. 1B); type: cell-based, Saccharomyces cerevisiae; parameters: key to Score: 0: SH3-independent; 1: SH3-dependent PPIs; 2: SH3-inhibited PPIs; settings: for medrep (log2 median colony size normalized to plate background, PCA score): label = prey
From the text: To assess the requirement of SH3 domains for PPIs in vivo, we first measured binary interactions between 22 WT SH3-containing proteins (Supplementary Fig. 1A) as baits and 575 putative partners from their interconnected signaling networks using the dihydrofolate reductase protein–fragment complementation assay (DHFR-PCA) in the budding yeast Saccharomyces cerevisiae. About 33% (202/607) of the PPIs detected were described before, mostly by direct methods (Supplementary Fig. 1B, C)[11]. We repeated the experiments with baits in which the SH3s were individually replaced with a flexible linker by genome editing (SH3 domain deletion/stuffing, Fig. 1A). The stuffer DNA sequence ([…]) codes for a small flexible poly-Gly with Ser peptide ([…]) that is inspired by previous experiments[12],[13]. About a third of the SH3-containing protein interactome is qualitatively or quantitatively SH3-dependent (171 PPIs out of 607, Fig. 1B and Supplementary Fig. 1B, C). We validated the vast majority of the quantitative changes in low-throughput experiments and excluded that this is simply due to changes in protein abundance in most cases (Supplementary Fig. 1D–G). SH3-binding motifs[14] are more frequent in the SH3-dependent PPI partners when compared to sequences from random proteins, SH3-independent PPI partners or PPI partners that are stronger or gained following SH3 deletions (p values = 1.5 × 10^−17, 0.0038 and 2.1 × 10^−08, respectively; Mann–Whitney test, one-tailed, Fig. 1C). The changes we measure are therefore enriched for PPIs that depend on the direct interactions of the domains with the PPI partners.
The complete list of strains, primers, and gRNAs used in this study can be found in Supplementary Tables 1–3. All constructed yeast strains were validated by polymerase chain reaction (PCR) and confirmed by Sanger sequencing of the locus of interest. Bait strains for the DHFR-PCA experiments were constructed as follows. The genes of interest were fused at their genomic 3′ end by replacing the stop codon with a linker ([…]), the DHFR F[1,2] followed by a smaller linker (GGGGS), a 1× FLAG tag ([…]) and the NATMX4 resistance cassette via homologous recombination (all amplified from pAG25-DHFR[1,2]-linker-FLAG). The set of 615 prey strains (DHFR F[3] fusions in the BY4742 background) were retrieved from the Yeast Protein Interactome Collection[43] with the exception of 73 that were reconstructed (Supplementary Tables 1 and 2). Knockout strains were taken from the yeast knockout collection except for ABP1, BEM1, BZZ1, and SLA1, which were reconstructed by replacing the ORFs with the NATMX4 resistance cassette by homologous recombination in the BY4741 background.
Yeast SH3 domain genomic sequences were replaced by CRISPR–Cas9 genome editing. Each SH3 domain (as defined by the SMART database V8.0 except for Ysc84 SH3 (as defined by PROSITE), see Source Data for all SH3 sequences and Supplementary Table 1 for primers used) was specifically targeted by one gRNA[46]. Yeast competent cells were co-transformed with a pCAS plasmid (Addgene plasmid 60847[47]) expressing both the gRNA of interest and Streptococcus pyogenes Cas9[46] and a donor DNA sequence (stuffer) with 60 bp homology arms surrounding the SH3 DNA sequence. The Stuffer DNA was either PCR amplified or digested from a plasmid. The stuffer DNA sequence ([…]) codes for a small flexible linker ([…]) inspired by protein linkers used in structural biology[12],[13]. This type of linker is frequently used for fusing proteins without affecting the structure of the linked proteins.
The overall DHFR-PCA pipeline is based on Tarassov et al.[43] and the procedures have also been published as a visualized protocol. The screens were performed with robotically manipulated pin tools (BM5-SC1, S&P Robotics Inc.). First, the preys were cherry-picked from 96-well plates to omnitrays in a 384 format on YPD + HPH solid media. […]

BZZ1-1 = test: DHFR-PCA on solid medium, bait BZZ1-1 (Fig. 1B); type: cell-based, Saccharomyces cerevisiae; settings: bait BZZ1-1, label = prey; 4 replicates
From the text: Supplement 41467_2021_21873_MOESM8_ESM.xlsx, sheet "Fig1B" | column: medsize; medrep; Score

BOI2 = test: DHFR-PCA on solid medium, bait BOI2 (Fig. 1B); type: cell-based, Saccharomyces cerevisiae; settings: bait BOI2, label = prey; for medrep (log2 median colony size normalized to plate background, PCA score): 3-8 replicates; for Ratio (SH3-deleted/WT medrep): only significant differences showed, PPIs completely lost have a ratio of 0.1 and the gained PPIs 2.5
From the text: as §1

BEM1-1 = test: DHFR-PCA on solid medium, bait BEM1-1 (Fig. 1B); type: cell-based, Saccharomyces cerevisiae; settings: bait BEM1-1, label = prey; for medrep (log2 median colony size normalized to plate background, PCA score): 2-8 replicates; for Ratio (SH3-deleted/WT medrep): only significant differences showed, PPIs completely lost have a ratio of 0.1 and the gained PPIs 2.5
From the text: as §1

ABP1 = test: DHFR-PCA on solid medium, bait ABP1 (Fig. 1B); type: cell-based, Saccharomyces cerevisiae; settings: bait ABP1, label = prey; 2-4 replicates
From the text: as §1

BEM1-2 = test: DHFR-PCA on solid medium, bait BEM1-2 (Fig. 1B); type: cell-based, Saccharomyces cerevisiae; settings: bait BEM1-2, label = prey; for medrep (log2 median colony size normalized to plate background, PCA score): 2-8 replicates; for Ratio (SH3-deleted/WT medrep): only significant differences showed, PPIs completely lost have a ratio of 0.1 and the gained PPIs 2.5
From the text: as §1

P130CAS/BCAR1 = test: Co-immunoprecipitation / Western blot NCK2-P130CAS/BCAR1 (Fig. S6C-D); type: cell-based, human; settings: Prey P130CAS, sheet FigS6A-D
Protocol: Human embryonic kidney 293T cells (HEK293T, ATCC:CRL-3216) were grown in Dulbecco’s Modified Eagle’s medium (DMEM) high glucose complemented with 10% fetal calf serum under 5% CO2 at 37 °C. Transient expression of cDNA in cells was performed by polyethylenimine (PEI, Millipore Sigma) transfections. Enrichment of phospho-dependent PPIs was done by treating HEK293T cells with the tyrosine phosphatase inhibitor pervanadate, freshly made by mixing 4 mM orthovanadate (Millipore Sigma) with 30% H2O2 (Millipore Sigma) in water in a 200:1 volume ratio.
(§2) For the experiments with HEK293T cells (1 × 10cm confluent dish for WB and 3 × 15cm for MS), cells were washed in ice-cold PBS and lysed in lysis buffer (20 mM Tris-HCl pH 7.4, 150 mM NaCl, 1 mM EDTA, 0.5% sodium deoxycholate (Millipore Sigma), 10 mM beta-glycerophosphate (Millipore Sigma), 10 mM sodium pyrophosphate (Millipore Sigma), 50 mM NaF (Millipore Sigma)). Protease inhibitors were added to the lysis buffer (P8340 (Millipore Sigma) for WB and PMSF 1 mM, aprotinin 10 µg/mL, leupeptin 10 µg/mL and pepstatin 10 µg/mL (all Millipore Sigma) for MS). Cells were scraped in the lysis buffer and lysed at 4 °C for 20 min and centrifuged for another 20 min at 20,000 g at 4 °C. Bait proteins from the supernatant were immunoprecipitated for 90 min at 4 °C with FLAG-M2 agarose beads (Millipore Sigma) and washed three times in the lysis buffer. Beads were then used for WB or MS experiments (see below).
(§3) Protein extracts and affinity-purified baits from yeast and human lysed cells were migrated on 10% polyacrylamide gels. The separated proteins were then transferred to nitrocellulose membranes. Validation of correct protein loading was done with ponceau staining of the membranes. Before the primary antibody incubations, membranes were blocked in 5% milk. Protein signals were detected on an Amersham Imager 600RGB (GE Healthcare) following the incubation of the membranes with the appropriate HRP-conjugated secondary antibodies and the Clarity Western ECL Substrate (Bio-Rad). The antibodies used in this study are M2-HRP (A8592, Sigma, 1/50,000), rabbit anti-FLAG (F7425, Sigma, 1/1000), PAK (SC-881, Santa Cruz, 1/200), p130cas/BCAR1 (SC-860, Santa Cruz, 1/200), actin (Cell Signaling Technology, 1/2000), anti-mouse HRP (Cell Signaling Technology, 1/10,000) and anti-rabbit HRP (Cell Signaling Technology, 1/10,000). The quantification of the WB signals was performed with the Amersham Imager 600 analysis software (GE Healthcare).
(§4) Supplementary Fig. 6| NCK2 SH3 shuffling affects its interactions with PAK1 and P130CAS/BCAR1 in cells but only slightly alters the availability of the SH3 binding pockets in vitro. A, Western blot analysis of NCK2 SH3-shuffled proteins interaction with PAK1. Each bait is N-terminally fused to a 3XFLAG tag. Loading corresponds to Ponceau staining of the nitrocellulose membrane. Experiment was performed in four replicates in HEK293T cells. B, Western blot quantification of PAK1 co-immunoprecipitation with NCK2.
(§5) Average log2 ratio relative to the WT protein is shown (NCK2mut/NCK2WT, WT NCK2 log2 ratio = 0). Ratios from replicates were compared t o WT NCK2 via pairwise ANOVA statistical […]
(§6) bars indicate the SD. C, Western blot analysis of NCK2 SH3-shuffled proteins association with SH2 target P130CAS/BCAR1. The experiment was performed in four replicates in HEK293T cells stimulated with the tyrosine phosphatase inhibitor pervanadate. D, Quantification of the Western blot signals of P130CAS co-immunoprecipitation with NCK2 as in B,. The four ratios of the replicates were compared to WT NCK2 via pairwise ANOVA statistical test (p -values: […]

PAK1 = test: Co-immunoprecipitation / Western blot NCK2-PAK1 (Fig. S6A-B); type: cell-based, human; settings: Prey PAK1, sheet FigS6A-D
Protocol: as §2, §3, §4, §5, §6
(1 picture or pasted object on this page, not shown here)

BOI1 = test: DHFR-PCA on solid medium, bait BOI1 (Fig. 1B); type: cell-based, Saccharomyces cerevisiae; settings: bait BOI1, label = prey; for medrep (log2 median colony size normalized to plate background, PCA score): 3-8 replicates; for Ratio (SH3-deleted/WT medrep): only significant differences showed, PPIs completely lost have a ratio of 0.1 and the gained PPIs 2.5
From the text: as §1

BUD14 = test: DHFR-PCA on solid medium, bait BUD14 (Fig. 1B); type: cell-based, Saccharomyces cerevisiae; settings: bait BUD14, label = prey
From the text: as §1

[2] = bait SLA1-3, DHFR-PCA, Replicates 4 (2 for YCR009C, YDR388W, YIL033C)
[3] = average of R1-R4, SD in next column
[4] = only significant differences showed, PPIs completely lost have a ratio of 0.1 and the gained PPIs 2.5

Substance | medrep (log2 median colony size normalized to plate background, PCA score) (BBC1) | medrep (log2 median colony size normalized to plate background, PCA score) [1, 2] | Score ([1]; bait SLA1-3, label = prey) | medrep (log2 median colony size normalized to plate background, PCA score) (BOI2) | medrep (log2 median colony size normalized to plate background, PCA score) (BEM1-1) | Ratio (SH3-deleted/WT medrep) (BEM1-1) | medrep (log2 median colony size normalized to plate background, PCA score) (ABP1) | medrep (log2 median colony size normalized to plate background, PCA score) (BEM1-2) | Ratio (SH3-deleted/WT medrep) (BEM1-2) | medrep (log2 median colony size normalized to plate background, PCA score) (BOI1) | Ratio (SH3-deleted/WT medrep) (BOI1) | Ratio (SH3-deleted/WT medrep) (BOI2) | other results
YCR088W (PWATAEYDYDAAEDNELTFVENDKIINIEFVDDDWWLGELEKDGSKGLFPSNYVSLGN) | 4.833 | 4.931 | 0 | 2.0061 | 1.996 | 0.1 | 5.528 | 1.996 | – | – | – | – | medrep (log2 median colony size normalized to plate background, PCA score) (BZZ1-1): 4.666
NCK2 WT | – | – | – | – | – | – | – | – | – | – | – | – | Log2 ratio average (P130CAS/BCAR1; [3]): 0; Log2 ratio on WT R1 (P130CAS/BCAR1; replicate R1): 0; Ratio on WT R1 (P130CAS/BCAR1; replicate R1): 1; Log2 ratio on WT R3 (P130CAS/BCAR1; replicate R3): 0; Ratio on WT R3 (P130CAS/BCAR1; replicate R3): 1; Log2 ratio on WT R4 (P130CAS/BCAR1; replicate R4): 0; Ratio on WT R4 (P130CAS/BCAR1; replicate R4): 1; Log2 ratio average (PAK1; [3]): 0; Log2 ratio on WT R1 (PAK1; replicate R1): 0; Ratio on WT R1 (PAK1; replicate R1): 1; Log2 ratio on WT R3 (PAK1; replicate R3): 0; Ratio on WT R3 (PAK1; replicate R3): 1; Log2 ratio on WT R4 (PAK1; replicate R4): 0; Ratio on WT R4 (PAK1; replicate R4): 1
YGL206C | 1.387 | 4.577 | 0 | – | – | – | 4.275 | 1.4327 | 2.5 | 1.512 | 0.1 | – | Ratio (SH3-deleted/WT medrep) (BBC1; [4]): 0.4969
YER155C | – | – | – | 1.649 | – | – | – | – | – | 1.496 | 0.1 | 0.1 | medrep (log2 median colony size normalized to plate background, PCA score) (BUD14; 4 replicates): 1.311; Ratio (SH3-deleted/WT medrep) (BUD14; [4]): 0.1
YMR109W (PMFEAAYDFPGSGSPSELPLKKGDVIYITREEPSGWSLGKLLDGSKEGWVPTAYMKPHS) | 5.231 | 3.8664 | 0 | 1.504 | 1.531 | 0.1 | 4.62 | 1.531 | 0.1 | – | – | 0.1 | medrep (log2 median colony size normalized to plate background, PCA score) ([1]; bait SLA1-2, DHFR-PCA, Replicates 4 (2 for YCR009C, YDR388W)): 3.8664; Score ([1]; bait SLA1-2, label = prey): 1; Ratio (SH3-deleted/WT medrep) ([1]; bait SLA1-2, label = prey, only significant differences shown, PPIs completely lost have a ratio of 0.1, gained PPIs 2.5): 0.1
